Read-outs that look alike come from different tables or passages of the source.
What was measured:
Caco-2 cells = experiment: Counter-screen on Caco-2 cells, ATP level by luminescence (ATPlite), 48 h incubation; assay type: cell-based, human; conditions: atmospheric O2, 5% CO2, 48 h, 37 °C
Method: Trophozoites of G. intestinalis strain WB clone C6 (ATCC No. 50803TM) were cultured axenically at 37^∘C in 25-cm^2 flasks containing Diamond’s TYI-S-33 medium supplemented with 10% bovine calf serum, 1 mg/mL bovine bile, 0.1 g/L streptomycin and 100 U/mL penicillin. […] Human epithelial colorectal adenocarcinoma (Caco-2) cells were grown in 25-cm^2 flasks in EMEM supplemented with 1% (v/v) non-essential amino acids, 2 mM glutamine, 5% (v/v) fetal bovine serum, 0.1 g/L streptomycin, and 100 U/mL penicillin.
Cells were detached with 0.5% trypsin-EDTA and seeded in sterile 96-well white clear-bottom plates at the same density of Giardia trophozoites and at increasing concentration of the compound to be tested, as described above. The assays were carried out exactly as reported for the Giardia trophozoites, except that the plates were incubated (still at 37^∘C) at atmospheric O2 level, 5% CO2, and 95% humidity. Each drug concentration was tested in at least seven replicates. MTZ was used as an internal […] control in the assay. Following 48 h incubation with each compound, according to the manufacturer instructions, 100 μL of the ATPlite^TM luminescence assay system (Perkin Elmer) was added to each well for one-step lysis and ATP level detection by luminescence.
Luminometric data were calibrated using ATP standard curves and normalized to the ATP level measured in control DMSO-treated cells (taken as 100%). The measured ATP level percentage was plotted as a function of the compound concentration and the half-maximal inhibitory concentration (IC50) was obtained by fitting the resulting titration profile to the Hill equation ([Goutelle et al., 2008]). The selectivity index (SI) of the compounds was then calculated as the ratio between the IC50 value measured on human cells over the value determined on Giardia trophozoites (SI = IC50,Caco-2/IC50,Giardia).
Selectivity of the newly synthesized compounds toward Giardia was assessed by running a counter-screen on human epithelial Caco-2 cells. […] This allowed us to calculate the compounds SI, defined as the ratio between the IC50 value measured on human cells over the value determined on Giardia trophozoites.

[1] = tested on: Giardia intestinalis trophozoites; experiment: Drug susceptibility of Giardia trophozoites, ATP level by luminescence (BacTiter-Glo), 48 h incubation, anaerobic or microaerobic; assay type: cell-based, Giardia intestinalis strain WB clone C6; conditions: for IC50: 48 h, 37 °C, ATP level; for Selectivity (IC50,Caco/IC50,Giardia) Microaerobiosis / Selectivity (IC50,Caco/IC50,Giardia) Anaerobiosis: SI = IC50,Caco-2/IC50,Giardia; for selectivity ratio at 48 h: human (Caco-2 cells) versus Giardia intestinalis, Caco-2, SI = IC50,Caco-2/IC50,Giardia
Method: Trophozoites of G. intestinalis strain WB clone C6 (ATCC No. 50803TM) were cultured axenically at 37^∘C in 25-cm^2 flasks containing Diamond's TYI-S-33 medium supplemented with 10% bovine calf serum, 1 mg/mL bovine bile, 0.1 g/L streptomycin and 100 U/mL penicillin. Typically, 50 ml medium was inoculated with 25 × 10^6 cells and after 2 days cells were harvested by chilling the flasks on ice for 30 min for drug susceptibility assays. […] The assays were performed following the procedure described in [Bahadur et al. (2014)], using sterile 96-well white clear-bottom plates. […] Each drug concentration was tested in at least six replicates. MTZ was used as an internal positive control in the assay. The microtiter plates were then incubated at 37^∘C under anaerobic or microaerobic conditions, ensured by the Anaerocult® A or the Anaerocult® […] (Merck), respectively. […] Following 48 h incubation with the compound to be tested, 100 μL of the BacTiter-Glo^TM Microbial Cell Viability Assay System reagent (Promega) was added to each well for one-step lysis and ATP level detection. Plates were then incubated at room temperature for 15 min and ATP levels finally detected by luminescence on a plate reader (Wallac Victor3 1420 Multilabel Counter, PerkinElmer). Luminometric data were calibrated using ATP standard curves and normalized to the ATP level measured in control DMSO-treated cells (taken as 100%). The measured ATP level percentage was plotted as a function of the compound concentration and the half-maximal inhibitory concentration (IC50) was obtained by fitting the resulting titration profile to the Hill equation ([Goutelle et al., 2008]). The selectivity index (SI) of the compounds was then calculated as the ratio between the IC50 value measured on human cells over the value determined on Giardia trophozoites (SI = IC50,Caco-2/IC50,Giardia). The antigiardial activity of the novel compounds 23-67 was tested under both anaerobic and microaerobic conditions. According to ([Dunn et al., 2010]; [Bahadur et al., 2014]), susceptibility of Giardia trophozoites to increasing concentrations of each compound was assessed based on ATP level determination by luminescence. Dose-response curves for each compound were obtained after 48 h-incubation and compared to the data collected under identical conditions with MTZ, the drug of choice for treatment of giardiasis. […] Typical dose-response curves are shown in Figure 2, whereas the IC50 values measured for the synthetic compounds and MTZ under anaerobic and microaerobic conditions are reported in Table 1. […] Under anaerobic conditions, 18 out of the 45 synthetic compounds were as effective as MTZ or more under identical conditions (see Table 1).

[2] = Giardia duodenalis, anaerobic conditions (Anaerocult A), read-out: Giardia (anaerobiosis) IC50
[3] = Giardia duodenalis, microaerobic conditions (~5% O2, Anaerocult C), read-out: Giardia (microaerobiosis) IC50
[4] = anaerobic conditions (Anaerocult A), read-out: Giardia (anaerobiosis) IC50
[5] = microaerobic conditions (~5% O2, Anaerocult C), read-out: Giardia (microaerobiosis) IC50
[6] = Giardia under anaerobiosis, read-out: Selectivity (IC50,Caco/IC50,Giardia) Anaerobiosis
[7] = Giardia under microaerobiosis, read-out: Selectivity (IC50,Caco/IC50,Giardia) Microaerobiosis

| melting point [°C] | Selectivity (IC50,Caco/IC50,Giardia) Microaerobiosis ([1]; Giardia under microaerobiosis) | Selectivity (IC50,Caco/IC50,Giardia) Anaerobiosis ([1]; Giardia under anaerobiosis) | SMILES | IC50 (Caco-2 cells; Homo sapiens, Caco-2, 48 h) [µM] | IC50 [1, 2] [µM] | IC50 [1, 3] [µM] | IC50 (Caco-2 cells) [µM] | IC50 [1, 4] [µM] | IC50 [1, 5] [µM] | selectivity ratio at 48 h [1, 6] | selectivity ratio at 48 h [1, 7] | fold more efficient than MTZ against Giardia ([1]; anaerobic conditions, relative to MTZ) |
| --- | --- | --- | --- | --- | --- | --- | --- | --- | --- | --- | --- | --- |
| 216 to 218 |  |  | Cc1ccc(-n2cc(Cn3c(=O)c(/C=C/C(=O)c4ccc(Br)cc4)cc4ccccc43)nn2)cc1 [Compound 36] | ≥ 50 | 10.7 | 2.3 |  |  |  | ≥ 4 | ≥ 21 |  |
|  | 34,3 | 6,9 | COc1ccccc1C(=O)/C=C/c1cc2ccccc2n(Cc2cn(-c3ccc(C)cc3)nn2)c1=O [Compound 38] |  |  |  | 13.7 | 2 | 0.4 |  |  |  |
| 192 to 194 |  |  | COc1cccc(C(=O)/C=C/c2cc3ccccc3n(Cc3cn(-c4ccc(C)cc4)nn3)c2=O)c1 [Compound 39] |  | 2.9 | 1.3 |  |  |  |  |  |  |
|  | 26 | 5,8 | O=C(/C=C/c1cc2ccccc2n(Cc2cn(-c3ccc(F)cc3)nn2)c1=O)c1ccccc1F [Compound 41] |  |  |  | 5.2 | 0.9 | 0.2 |  |  | three to fourfold |
|  | 15,8 | 2,5 | Cc1ccc(C(=O)/C=C/c2cc3ccccc3n(Cc3cn(-c4ccc(F)cc4)nn3)c2=O)cc1 [Compound 46] |  |  |  | 6.3 | 2.5 | 0.4 |  |  |  |
|  | ≥38 | ≥3 | COc1ccc(C(=O)/C=C/c2cc3ccccc3n(Cc3cn(-c4ccc(F)cc4)nn3)c2=O)cc1 [Compound 49] |  |  |  | ≥ 50 | 13 | 1.3 |  |  |  |
|  | ≥10 | ≥ 2 | O=C(/C=C/c1cc2ccccc2n(Cc2cn(-c3ccc(Cl)cc3)nn2)c1=O)c1ccc(Br)cc1 [Compound 54] |  |  |  | ≥ 20 | 9.2 | 1.9 |  |  |  |
|  | ≥ 50 | ≥ 7 | O=C(/C=C/c1cc2ccccc2n(Cc2cn(-c3ccccc3)nn2)c1=O)c1ccc(Br)cc1 [Compound 63] |  |  |  | ≥ 50 | 6.3 | 1 |  |  |  |

Further lines, the compound ahead of its results:

| SMILES | melting point [°C] | Selectivity (IC50,Caco/IC50,Giardia) Microaerobiosis ([1]; Giardia under microaerobiosis) | Selectivity (IC50,Caco/IC50,Giardia) Anaerobiosis ([1]; Giardia under anaerobiosis) | IC50 (Caco-2 cells; Homo sapiens, Caco-2, 48 h) [µM] | IC50 [1, 2] [µM] | IC50 [1, 3] [µM] | IC50 (Caco-2 cells) [µM] | IC50 [1, 4] [µM] | IC50 [1, 5] [µM] | selectivity ratio at 48 h [1, 6] | selectivity ratio at 48 h [1, 7] | fold more efficient than MTZ against Giardia ([1]; anaerobic conditions, relative to MTZ) |
| --- | --- | --- | --- | --- | --- | --- | --- | --- | --- | --- | --- | --- |
| COc1ccc(-n2cc(Cn3c(=O)c(/C=C/C(=O)c4ccccc4F)cc4ccccc43)nn2)cc1 [Compound 23] | 215 to 217 |  |  | ≥ 100 | ≥ 100 | ≥ 20 |  |  |  |  |  |  |
| COc1ccc(-n2cc(Cn3c(=O)c(/C=C/C(=O)c4cccc(F)c4)cc4ccccc43)nn2)cc1 [Compound 24] |  | ≥6 |  |  |  |  | ≥ 50 | ≥ 100 | 8.4 |  |  |  |
| COc1ccc(-n2cc(Cn3c(=O)c(/C=C/C(=O)c4ccc(F)cc4)cc4ccccc43)nn2)cc1 [Compound 25] | 211 to 213 |  |  | ≥ 20 | 3.9 | 1.3 |  |  |  | ≥ 5 | ≥ 15 |  |
| COc1ccc(-n2cc(Cn3c(=O)c(/C=C/C(=O)c4ccc(Cl)cc4)cc4ccccc43)nn2)cc1 [Compound 26] | 230 to 232 |  |  | ≥ 20 | 5 | 2.6 |  |  |  | ≥ 4 | ≥ 7 |  |
| COc1ccc(-n2cc(Cn3c(=O)c(/C=C/C(=O)c4ccc(Br)cc4)cc4ccccc43)nn2)cc1 [Compound 27] |  | ≥10 | ≥2 |  |  |  | ≥ 20 | 9.6 | 2 |  |  |  |
| COc1ccc(-n2cc(Cn3c(=O)c(/C=C/C(=O)c4ccc(C)cc4)cc4ccccc43)nn2)cc1 [Compound 28] | 213 to 215 |  |  | ≥ 80 | 5.4 | 1.5 |  |  |  | ≥ 14 | ≥ 53 |  |
| COc1ccc(-n2cc(Cn3c(=O)c(/C=C/C(=O)c4ccccc4OC)cc4ccccc43)nn2)cc1 [Compound 29] | 210 to 212 |  |  | ≥ 40 | 2.2 | 0.4 |  |  |  | > 15 |  |  |
| COc1ccc(-n2cc(Cn3c(=O)c(/C=C/C(=O)c4cccc(OC)c4)cc4ccccc43)nn2)cc1 [Compound 30] |  | ≥153 | ≥33 |  |  |  | ≥ 200 | 5.9 | 1.3 |  |  |  |
| COc1ccc(C(=O)/C=C/c2cc3ccccc3n(Cc3cn(-c4ccc(OC)cc4)nn3)c2=O)cc1 [Compound 31] | 190 to 192 |  |  | ≥ 80 | ≥ 50 | 2 |  |  |  |  | ≥ 40 |  |
| Cc1ccc(-n2cc(Cn3c(=O)c(/C=C/C(=O)c4ccccc4F)cc4ccccc43)nn2)cc1 [Compound 32] | 197 to 199 |  |  | 17.6 | 3.2 | 0.6 |  |  |  | 5.5 | 29.3 |  |
| Cc1ccc(-n2cc(Cn3c(=O)c(/C=C/C(=O)c4cccc(F)c4)cc4ccccc43)nn2)cc1 [Compound 33] |  | 19,1 | 3,4 |  |  |  | 13.4 | 4 | 0.7 |  |  |  |
| Cc1ccc(-n2cc(Cn3c(=O)c(/C=C/C(=O)c4ccc(F)cc4)cc4ccccc43)nn2)cc1 [Compound 34] | 215 to 217 |  |  | 9.4 | 3.8 | 1.2 |  |  |  | 2.5 | 7.8 |  |
| Cc1ccc(-n2cc(Cn3c(=O)c(/C=C/C(=O)c4ccc(Cl)cc4)cc4ccccc43)nn2)cc1 [Compound 35] | 196 to 198 |  |  | 7 | 2.4 | 0.8 |  |  |  | 2.9 | 8.8 |  |
| Cc1ncc([N+](=O)[O-])n1CCO [MTZ, metronidazole, reference compound] |  |  |  | > 100 | 3.4 | ≥ 25 |  |  |  | ≥ 29 |  |  |

Source: article PMC4389562, “Antigiardial activity of novel triazolyl-quinolone-based chalcone derivatives: when oxygen makes the difference” (Frontiers in Microbiology, 2015)
